From US8921380B2, “Pyrazolo[1,5-a] pyrimidine compounds as CB1 receptor antagonist” (Mitsubishi Tanabe Pharma Corporation, priority 2006, dated 2014)
pIC50: −log10 of the molar value.

Columns and labels:
[1] = biological target: T1, Human CB1 receptor (Homo sapiens, UniProt P21554); experiment: Human CB1 receptor binding assay ([3H]-CP55940, hCB1/CHO membrane fraction)
T1 construct: host or cells: CHO (hCB1/CHO), membrane fraction
Method: [Human CB1 Receptor Binding Assay]
(1) Preparation of Human CB1 Receptor (Membrane Fraction):
Human CB1-expressing cell line: hCB1/CHO (#ES-110-C, Euroscreen)
Buffer A: 50 mM tris-HCl (pH 7.5) containing ethylenediaminetetraacetic acid (2.5 mM), MgCl2 (5 mM) and sucrose (200 mM)
Method) The receptor-expressing cells cultivated in the above medium were washed with phosphate buffer (×2 times) and thereto was added Buffer A (2 mL) under ice-cooling or 4° C. (the following procedures were also carried out at the same temperature). The cells were collected by using a cell-scraper, treated by a microtip-type ultrasonicator for 20 seconds (pulse-on: 2 sec, pulse-off: 1 sec) and centrifuged (500×g, 15 min). The supernatant was separated and centrifuged (43000×g, 60 min). The resultant pellet was suspended in Buffer A and homogenized with a potter-type homogenizer. To the homogenate was added an equal volume of 80% glycerol and stored at −80° C.
(2) Procedure of CB1 Receptor Binding Assay:
Buffer B: 50 mM tris-HCl (pH 7.5) containing ethylenediaminetetraacetic acid (2.5 mM), MgCl2 (5 mM) and bovine serum albumine (2 mg/mL, fatty acid-free, SIGMA-A7030)
Buffer C: 50 mM tris-HCl (pH 7.5) containing ethylenediaminetetraacetic acid (2.5 mM), MgCl2 (5 mM) and bovine serum albumine (2 mg/mL, SIGMA-A7906)
Coating solution: 0.3% ethyleneimine polymer
Radioligand: [^3H]-CP55940 (30 nM, 7992 dpm/μL, PerkinElmer, #NET-1051) prepared by diluting 8.3 μM solution of the radioligand with Buffer B
Method) Each well of the assay plate (96-well, Corning Costar Code#3371) was filled with Buffer B (140 μL), a solution of each test compound in dimethylsulfoxide (20 μL, […]), radioligand (20 μL) and membrane preparation (20 μL, 0.5 to 8.0 μg/20 μL) and the mixture was incubated at room temperature for 90 minutes to proceed the binding reaction. The reaction mixture was filtered through Unifilter GF/B (Packard#6005177) presoaked with the above coating solution to collect the membrane fraction. The plate was washed with Buffer C (200 μL×10 times) and dried at 50° C. for 1 hour and Microscinti 40 (40 μL/well) was added to each well. The bound radiolabel was quantitated by a scintilation counter (Top Count NXT, Packard). IC50 value of each test compound against the radioligand-binding to CB1 receptors was calculated on the basis of the quantitated radiolabel activity by using Microsoft Excel 2000 (Microsoft).
(§1) a) Human CB1 receptor-binding assay: The binding assay was conducted in the same manner as described in Experiment 1.

[2] = biological target: T2, Human CB2 receptor (Homo sapiens, UniProt P34972); experiment: Human CB2 receptor-binding assay (hCB2/CHO) for selectivity to CB1 receptors; conditions: ratio of IC50 value for CB2/IC50 value for CB1
T2 construct: expressed in transfected cells; host or cells: CHO (hCB2/CHO), membrane fraction
Method: (1) Materials and Methods
as §1
b) Human CB2 receptor-binding assay: The binding assay was conducted in the same manner as described in Experiment 1, except that human CB2-expressing CHO cell line (hCB2/CHO) was used instead of hCB1 cell line. IC50 value of each test compound against the radioligand-binding to CB2 receptors was calculated in the manner as described in Experiment 1. Besides, selectivity to CB1 receptors was evaluated in terms of the ratio of IC50 value for CB2/IC50 value for CB1.

[3] = Experiment 1, inhibition of [3H]-CP55940 binding to hCB1/CHO membranes
[4] = Experiment 2, same method as Experiment 1

T1 sequence (P21554 whole entry): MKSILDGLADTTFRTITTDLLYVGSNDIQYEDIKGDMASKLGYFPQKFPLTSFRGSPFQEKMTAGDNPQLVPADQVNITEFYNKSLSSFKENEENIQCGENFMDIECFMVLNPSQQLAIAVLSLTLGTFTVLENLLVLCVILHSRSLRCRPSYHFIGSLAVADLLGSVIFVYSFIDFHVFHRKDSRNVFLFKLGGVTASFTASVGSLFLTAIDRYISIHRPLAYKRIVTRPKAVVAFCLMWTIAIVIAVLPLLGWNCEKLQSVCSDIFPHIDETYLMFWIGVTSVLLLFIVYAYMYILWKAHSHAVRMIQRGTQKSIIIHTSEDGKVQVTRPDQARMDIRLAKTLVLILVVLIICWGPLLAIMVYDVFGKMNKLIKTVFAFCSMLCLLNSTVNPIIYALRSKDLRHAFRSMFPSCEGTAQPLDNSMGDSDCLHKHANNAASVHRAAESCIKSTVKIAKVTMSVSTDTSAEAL
T2 sequence (P34972 whole entry): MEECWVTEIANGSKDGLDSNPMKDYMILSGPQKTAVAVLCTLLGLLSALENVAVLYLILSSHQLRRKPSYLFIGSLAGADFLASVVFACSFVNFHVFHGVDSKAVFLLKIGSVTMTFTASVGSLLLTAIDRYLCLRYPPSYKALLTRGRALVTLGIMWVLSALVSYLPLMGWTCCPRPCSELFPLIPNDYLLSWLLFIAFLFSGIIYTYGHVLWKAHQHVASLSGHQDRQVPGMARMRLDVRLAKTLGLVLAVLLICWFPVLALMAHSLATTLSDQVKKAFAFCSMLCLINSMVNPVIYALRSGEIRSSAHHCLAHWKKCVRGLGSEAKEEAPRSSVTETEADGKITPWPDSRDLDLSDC

Row | Compound | pIC50 [1, 3] | pIC50 [1, 4] | Selectivity [2]
1 | Cc1nn2c(-c3ccc(C(F)(F)F)cc3)c(-c3ccccc3Cl)cnc2c1C(=O)NC1(C#N)CCCCC1 [Example A13] | 7.00 to 8.00 | – | –
2 | CNC(=O)c1nn2c(-c3ccc(C(F)(F)F)cc3)c(-c3ccccc3Cl)cnc2c1C(=O)NC1(C)CCS(=O)(=O)CC1 [Example B36] | – | > 8.00 | –
3 | CC1(NC(=O)c2c(OCCO)nn3c(-c4ccc(Cl)cc4)c(-c4ccccc4Cl)cnc23)CCS(=O)(=O)C1 (centres unmarked) [Example A140] | – | > 8.00 | –
4 | N#Cc1ccccc1-c1cnc2c(C(=O)NC3CCCC3)c(S(N)(=O)=O)nn2c1-c1ccc(Cl)cc1 [Example B23] | > 8.00 | – | –
5 | CNS(=O)(=O)c1nn2c(-c3ccc(Cl)cc3)c(-c3ccccc3Cl)cnc2c1C(=O)N[C@@H]1CCS(=O)(=O)C1 [Example B6] | 7.00 to 8.00 | – | –
6 | CN(NC(=O)c1c(S(N)(=O)=O)nn2c(-c3ccc(Cl)cc3)c(-c3ccccc3Cl)cnc12)c1ccccn1 [Example B15] | > 8.00 | – | –
7 | CN(C)NC(=O)c1c(S(N)(=O)=O)nn2c(-c3ccc(C(F)F)cc3)c(-c3ccccc3Cl)cnc12 [Example B84] | – | 7.00 to 8.00 | –
8 | NC(=O)CNS(=O)(=O)c1nn2c(-c3ccc(Cl)cc3)c(-c3ccccc3Cl)cnc2c1C(=O)NC1CCCC1 [Example B26] | 7.00 to 8.00 | – | –
9 | N#Cc1ccccc1-c1cnc2c(C(=O)NC3(C(N)=O)CCS(=O)(=O)CC3)cnn2c1-c1ccc(C(F)(F)F)cc1 [Example A146] | – | 7.00 to 8.00 | –
10 | CC1(NC(=O)c2c(S(N)(=O)=O)nn3c(-c4ccc(Cl)cc4)c(-c4ccccc4Cl)cnc23)CC1 [Example B74] | – | > 8.00 | –
11 | NC(=O)C1(NC(=O)c2cnn3c(-c4ccc(Cl)cc4)c(-c4ccccc4Cl)cnc23)CCS(=O)(=O)CC1 [Example A3, 3-[N-(4-carbamoyl-1,1-dioxo-tetrahydrothiopyran-4-yl)carbamoyl]-6-(2-chlorophenyl)-7-(4-chlorophenyl)pyrazolo[1,5-a]pyrimidine] | – | 7.00 to 8.00 | >500
12 | NS(=O)(=O)c1nn2c(-c3ccc(Cl)cc3)c(-c3ccccc3Cl)cnc2c1C(=O)NN1CCCC1 [Example B14] | > 8.00 | – | –
13 | CC1(NC(=O)c2c(CO)nn3c(-c4ccc(C(F)(F)F)cc4)c(-c4ccccc4Cl)cnc23)CCS(=O)(=O)CC1 [Example B32, 6-(2-chlorophenyl)-7-(4-trifluoromethylphenyl)-2-hydroxymethyl-3-[N-(4-methyl-1,1-dioxotetrahydrothiopyran-4-yl)-carbamoyl]pyrazolo[1,5-a]pyrimidine] | – | > 8.00 | –
14 | CC1(NC(=O)c2cnn3c(-c4ccc(Cl)cc4)c(-c4ccccc4Cl)cnc23)CCCCC1 [Example A10] | 7.00 to 8.00 | – | –
15 | CNC(=O)C1(NC(=O)c2cnn3c(-c4ccc(Cl)cc4)c(-c4ccccc4Cl)cnc23)CCCCC1 [Example A5, 6-(2-chlorophenyl)-7-(4-chlorophenyl)-3-[N-[1-(N-methylcarbamoyl)cyclohexyl]-carbamoyl]pyrazolo[1,5-a]pyrimidine] | 7.00 to 8.00 | – | –
16 | Cc1nn2c(-c3ccc(Cl)cc3)c(-c3ccccc3Cl)cnc2c1C(=O)NC1(C(N)=O)CCS(=O)(=O)CC1 [Example A175] | – | 7.00 to 8.00 | –
17 | NC(=O)C1(NC(=O)c2c(S(N)(=O)=O)nn3c(-c4ccc(Cl)cc4)c(-c4ccccc4Cl)cnc23)CCCCC1 [Example B30, 3-[N-(1-carbamoylcyclohexyl)carbamoyl]-6-(2-chlorophenyl)-7-(4-chlorophenyl)-2-sulfamoylpyrazolo[1,5-a]pyrimidine] | 7.00 to 8.00 | – | –
18 | CN(NC(=O)c1c(S(=O)(=O)N(C)C)nn2c(-c3ccc(Cl)cc3)c(-c3ccccc3Cl)cnc12)c1ccccn1 [Example B12] | 7.00 to 8.00 | – | –
19 | CC(NC(=O)c1cnn2c(-c3ccc(Cl)cc3F)c(-c3ccccc3Cl)cnc12)c1ccccn1 (centres unmarked) [Example A15] | 7.00 to 8.00 | – | –
